The text below walks through data of patent US20220089602A1, “COMPOUNDS THAT INDUCE FERROPTIC CELL DEATH” (The Board of Trustees of the University of Illinois, priority 2019, published 2022).

Where only a bound is given, the exact number is not on record here.

The target of one assay is T1, thioredoxin (Homo sapiens, UniProt P10599).
T1 construct: endogenous in cells
Kind of assay: Thioredoxin activity assay in cell lysate. Format: cell-based. The following applies: 30 min treatment, HCT 116 cells; versus PMX464 and PX-12 (50 μM). How it is done:
(§1) HCT 116 cells (1×10^6 cells/flask) were treated with DMSO, 10 μM ferroptocide, 50 μM PMX464, or 50 μM PX-12 for 30 min. Cells were harvested by centrifugation, resuspended in the assay buffer and lysed via sonication. For each condition, 20 μg of cell lysate was used to measure the activity thioredoxin activity following manufacturer' protocol (Cayman Chemical, Fluorescent Thioredoxin Activity Assay kit #20039) in a 96-well black-walled plate. For in vitro studies, human thioredoxin (10 μL of 0.2 μM solution) was used in addition to thioredoxin reductase (10 μL of 1.0 μM solution), 1 μl of DMSO, ferroptocide, […], or PX-12 at indicated concentrations, 5 μL of NADPH (diluted according to manufacturer's instructions), and assay buffer to a final volume of 75 μL. The plate was incubated at 37° C. for 30 min followed by immediate addition of 20 μL fluorescent substrate per each well (diluted as instructed in the assay kit). Fluorescence was monitored over 1 hr at 520 nm after excitation at 480 nm in a SpectraMax M3 (Molecular Devices) instrument at 37° C.

Assay [1] deals with T2, purified human thioredoxin (Homo sapiens, UniProt P10599).
T2 construct: purchased Cayman Chemical Fluorescent Thioredoxin Activity Assay kit #20039
T2 sequence (P10599 whole entry): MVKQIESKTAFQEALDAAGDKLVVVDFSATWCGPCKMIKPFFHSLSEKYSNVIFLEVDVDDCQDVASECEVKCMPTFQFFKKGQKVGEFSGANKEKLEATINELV
Kind of assay: Thioredoxin activity assay, biochemical (in vitro). The settings on record: 30 min, versus PMX464 and PX-12. How it is done: as §1

The test system of assay [2] is ES-2 cells. Nature of the assay: Confocal microscopy competition with fluorescent analogue P30. It counts as cell-based. The settings on record: pretreatment at 3× IC50 for 30 min, then P30 (5 μM). The protocol: ES-2 cells (3×10^5 cell) were attached overnight in […] petri dish plates containing 2 ml of RPMI media. Prior to imaging, cells were stained for 30 min with Mitotracker Red CMXRoss at 100 nM final concentration. Upon media replacement, samples were pre-treated with 3× IC50 of ferroptocide, P27, L1, QQ1 for 30 min followed by treatment with 5 μM P30 for an additional 30 min and a PBS wash. PBS or phenol free media was added to each dish and cells were stained with Hoechst 33342 (1 μg/mL).

The subject of the next assay is HCT 116 cells. Nature of the assay: Cellular lipid ROS production (C11-BODIPY). The settings on record: 10 μM. Format: cell-based. How it is done:
(§2) ES-2, HCT 116, and 4T1 cells (1×10^5 cells/mL) were plated in 12-well plates. Cells were pre-treated for 2 hr with 100 μM deferoxamine followed by treatment with DMSO, 10 μM ferroptocide, 10 μM RSL3, or 100 μM TBHP for 1 hr, 1.5 hr and 2 hr respectively. Cells were washed with HBSS and incubated in the dark for 20 min with 5 μM C11-BODIPY probe. Cells were then washed 2× with HBSS and harvested at 1000×g, 3 min. After resuspension in 500 μl HBSS buffer, samples were analyzed with flow cytometry to record ten thousand events per sample in FL1 channel in BD LSR II Flow Cytometer (BD Bioscience). FCS express V6 De Novo software was used to generate histograms.

Assay [3] concerns ES-2 cells. Nature of the assay: Cellular lipid ROS production (C11-BODIPY). Format: cell-based. The following applies: 10 μM. How it is done: as §2
Assay [4] deals with ES-2 cells. Kind of assay: Mitochondrial ROS production (MitoSOX Red). It counts as cell-based. The following applies: 1 hr. How it is done: ES-2 cells (1×10^5 cells/mL) were plated in 12-well plates and allowed to attach overnight. Cells were treated for 1 hr with DMSO, 10 and 25 μM ferroptocide, 5 μM IB-DNQ, and 10 μM rotenone. Cells were washed with HBSS and incubated in the dark for 10 min with 5 μM MitoSOX Red probe. Cells were then washed 2× with HBSS and harvested at 1000×g, 3 min. After resuspension in 500 μl HBSS buffer, samples were analyzed with flow cytometry to record ten thousand events per sample in the PE channel in BD LSR II Flow Cytometer (BD Bioscience). FCS express V6 De Novo software was used to generate the histogram.

In a further assay the test system is E. coli. Kind of assay: Antibacterial activity (MIC). The settings on record: Escherichia coli; gram-negative (E. coli). It counts as cell-based.
Assay [5] concerns non-cancerous breast (MCF10A) cells. Nature of the assay: Cell viability IC50 in non-cancerous cells. It counts as cell-based. The settings on record: Homo sapiens, MCF-10A. The protocol: (§3) To a 384-well plate, 40 μL of 1.25× compound dilution or 1.25% DMSO-containing media was added (final volume of 1% DMSO). Concentrations of compounds tested were 100 μM to 100 nM. On each plate at least 3 technical replicates per compound were performed. Next, 10 μL of a 100,000 cells/mL suspension was added to each well, yielding a final concentration of 1,000 cells/well. To three wells in column 2 was added 1 μL of 10 mM doxorubicin (final concentration of 200 μM) as positive control of cell death. Plates were sealed with gas-permeable seals and incubated at 37° C. for 72 h. At that time, 5 μL of Alamar blue (440 μM resazurin in sterile PBS) was added and plates were incubated for 3-4 hours. Fluorescence was read on a Molecular Devices SpectraMax 3 (excitation=555 nm, emission=585 nm, emission cutoff=570 nm). Wells were normalized to the average of untreated wells (0% cell death). The data were plotted as compound concentration versus percent dead cells and fitted to a logistic-dose response curve using OriginPro 2015 (OriginLab, Northampton, Mass.). The data were generated in triplicate, and IC50 values are reported as the average of three separate experiments along with standard error of the mean.

In assay [6] the test system is human skin fibroblast (HFF-1) cells. Nature of the assay: Cell viability IC50 in non-cancerous cells. Format: cell-based. The protocol: as §3
Assay [7] concerns 4T1 triple negative breast cancer cells. Kind of assay: 4T1 subcutaneous tumor model, immunocompromised mice. It counts as in vivo. The following applies: 50 mg/kg i.p., twice a week, five doses, SCID; listed as ferroptocide. The protocol: The protocol was approved by the IACUC at the University of Illinois at Urbana-Champaign (Protocol Number: 17192). 9-week old female Balb/C or SCID mice (Charles River) were lightly sedated with i.p. xylazine/ketamine/saline solution. Following sedation, 4T1 murine breast cancer cells suspended in chilled HBSS (100 μL of 4×10^6 cells/mL) were injected subcutaneously into the right flank of shaved and sedated mice using an insulin syringe. On day 8 after inoculation, mice were randomized with 7 mice per group for vehicle or ferroptocide treatment. Vehicle (PEG400) or ferroptocide (50 mg/kg) was administered intraperitoneally as a PEG400 solution twice a week for 5 times. Tumor measurements were performed every 3 or 4 days using a caliper and tumor volume was calculated using the equation (0.5×l×w^2). On day 23 after the 4T1 cells inoculation, mice were sacrificed. Tumors were then surgically removed, and their mass was measured.

T1 sequence (P10599 whole entry): as above

For the molecule `C[C@@H]1CC[C@@]23C[C@H](O)C(=O)[C@@]2(O)[C@]1(C)[C@H](OC(=O)CCl)C[C@@H](C1=CCn2c(=O)n(-c4ccccc4)c(=O)n2C1)[C@@H]3C` [Compound P18, ferroptocide], the “thioredoxin activity in cell lysate” value on thioredoxin is “significantly reduced the activity of thioredoxin”. Moreover, in [1], the “inhibition of purified thioredoxin, dose-response” value was “more potent thioredoxin inhibitor than PMX464 and PX-12”. In addition, the “competition of P30 staining” value with ES-2 cells [2] is given as “competed away”. The “lipid ROS” value in the assay with HCT 116 cells and in the assay with ES-2 cells [3] was “induces lipid ROS” throughout. Further, the “mitochondrial ROS” value in the assay on ES-2 cells [4] was “increase of mitochondrial ROS”. Moreover, the MIC (usually the lowest concentration that inhibits growth of the organism) in the assay on E. coli is over 64 µg/mL. In addition, the results for the IC50 in assay [5] and in [6] were 3.1 µM and 4.1 µM, respectively. Besides, in [7], the “effect on subcutaneous 4T1 tumor growth (in words)” value is “no effect”.
